The results in this text go back to patent US20230085307A1, “PYRIDAZINONE COMPOUND AND HERBICIDE” (NISSAN CHEMICAL CORPORATION, priority 2019, published 2023).

In one assay the test system is false cleavers. The assay can be described thus: Test Example 4: herbicidal effect by soil treatment (Table 19, symbol Q). The class given is in vivo, false cleavers (Galium spurium). Conditions: amount of applied herbicide 320 g/ha. In short, it runs like this:
(§1)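 Three weeks of greenhouse growth at 25° C. to 30° C. followed a uniform surface spray of water-diluted emulsion at a predetermined herbicide amount. Seeds had been sown beforehand under about 1.5 cm of sterilized diluvial soil. Grading followed criteria set out in an earlier test.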
In the case of `CCCOc1ccccc1-c1sc2ccccc2c1-c1c(O)c(C)nn(C)c1=O` [1-015], the “herbicidal effect rating, Q: false cleavers” value is 3 (Herbicidal rate of 40% or more and less than 70%).

`Cc1nn(C)c(=O)c(-c2c(-c3ccccc3OC(F)(F)F)sc3ccccc23)c1O` [1-030]: the “herbicidal effect rating, Q: false cleavers” value is on record as 5 (Herbicidal rate of 90% or more (almost completely withered)).

The subject of the next assay is redroot pigweed. The assay can be described thus: Test Example 4: herbicidal effect by soil treatment (Table 19, symbol N). The assay is classed as in vivo, redroot pigweed (Amaranthus retroflexus). Particulars: amount of applied herbicide 320 g/ha. The method, boiled down: as §1
Take `CCCOc1ccccc1-c1sc2ccccc2c1-c1c(O)c(C)nn(C)c1=O` [1-015]: the “herbicidal effect rating, N: redroot pigweed” value was 0 (Herbicidal rate of 5% or less (almost no effect)).

Turning to `Cc1nn(C)c(=O)c(-c2c(-c3ccccc3OC(F)(F)F)sc3ccccc23)c1O` [1-030], the “herbicidal effect rating, N: redroot pigweed” value was 5 (Herbicidal rate of 90% or more (almost completely withered)).

For the next assay, the system named is southern crabgrass. The assay can be described thus: Test Example 4: herbicidal effect by soil treatment (Table 19, symbol F). The assay is classed as in vivo, southern crabgrass (Digitaria ciliaris). Particulars: amount of applied herbicide 320 g/ha. The method, boiled down:
as §1
As to `CCCOc1ccccc1-c1sc2ccccc2c1-c1c(O)c(C)nn(C)c1=O` [1-015], the “herbicidal effect rating, F: southern crabgrass” value is 3 (Herbicidal rate of 40% or more and less than 70%).

As for `Cc1nn(C)c(=O)c(-c2c(-c3ccccc3OC(F)(F)F)sc3ccccc23)c1O` [1-030], the “herbicidal effect rating, F: southern crabgrass” value is 5 (Herbicidal rate of 90% or more (almost completely withered)).

Another assay deals with lambsquarters. As to the kind of experiment: Test Example 5: herbicidal effect by foliage application, plastic box (Table 20, symbol O). The class given is in vivo, lambsquarters (Chenopodium album). Conditions: foliage application, 320 g/ha, three weeks after application. The method, boiled down:
(§2)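 Plants sown in sterilized diluvial soil and grown 14 days in a greenhouse at 25° C to 30° C, then sprayed on the foliage with the compound's emulsion diluted in water to a predetermined herbicide amount. Injury to weeds and crops scored three weeks after application on a visual rating scale.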
As to `CCCOc1ccccc1-c1sc2ccccc2c1-c1c(O)c(C)nn(C)c1=O` [1-015], the “herbicidal effect grade, O: lambsquarters” value was 0 (Herbicidal rate of 5% or less (almost no effect)).

Regarding `Cc1nn(C)c(=O)c(-c2c(-c3ccccc3OC(F)(F)F)sc3ccccc23)c1O` [1-030], the “herbicidal effect grade, O: lambsquarters” value is 5 (Herbicidal rate of 90% or more (almost completely withered)).

The next assay has as its system persian speedwell. As to the kind of experiment: Test Example 5: herbicidal effect by foliage application, plastic box (Table 20, symbol R). The assay is classed as in vivo, Persian speedwell (Veronica persica). Conditions: foliage application, 320 g/ha, three weeks after application. In short, it runs like this: as §2
As to `CCCOc1ccccc1-c1sc2ccccc2c1-c1c(O)c(C)nn(C)c1=O` [1-015], the “herbicidal effect grade, R: persian speedwell” value was 5 (Herbicidal rate of 90% or more (almost completely withered)).

Regarding `Cc1nn(C)c(=O)c(-c2c(-c3ccccc3OC(F)(F)F)sc3ccccc23)c1O` [1-030], the “herbicidal effect grade, R: persian speedwell” value was 5 (Herbicidal rate of 90% or more (almost completely withered)).

A further assay deals with blackgrass. As to the kind of experiment: Test Example 4: herbicidal effect by soil treatment (Table 19, symbol J). Particulars: amount of applied herbicide 320 g/ha. The class given is in vivo, blackgrass (Alopecurus myosuroides). The method, boiled down:
as §1
Regarding `CCCOc1ccccc1-c1sc2ccccc2c1-c1c(O)c(C)nn(C)c1=O` [1-015], the “herbicidal effect rating, J: blackgrass” value is 4 (Herbicidal rate of 70% or more and less than 90%).

Turning to `Cc1nn(C)c(=O)c(-c2c(-c3ccccc3OC(F)(F)F)sc3ccccc23)c1O` [1-030], the “herbicidal effect rating, J: blackgrass” value is 1 (Herbicidal rate of 5% or more and less than 20%).

A further assay deals with velvetleaf. As to the kind of experiment: Test Example 4: herbicidal effect by soil treatment (Table 19, symbol M). The class given is in vivo, velvetleaf (Abutilon theophrasti). Particulars: amount of applied herbicide 320 g/ha. The method, boiled down: as §1
On to `CCCOc1ccccc1-c1sc2ccccc2c1-c1c(O)c(C)nn(C)c1=O` [1-015], for which the “herbicidal effect rating, M: velvetleaf” value is 0 (Herbicidal rate of 5% or less (almost no effect)).

For the compound `Cc1nn(C)c(=O)c(-c2c(-c3ccccc3OC(F)(F)F)sc3ccccc23)c1O` [1-030], the “herbicidal effect rating, M: velvetleaf” value is 3 (Herbicidal rate of 40% or more and less than 70%).

A further assay deals with Italian ryegrass. As to the kind of experiment: Test Example 5: herbicidal effect by foliage application, plastic box (Table 20, symbol K). The assay is classed as in vivo, Italian ryegrass (Lolium multiflorum). Conditions: foliage application, 320 g/ha, three weeks after application. In short, it runs like this: as §2
Consider `CCCOc1ccccc1-c1sc2ccccc2c1-c1c(O)c(C)nn(C)c1=O` [1-015], for which the “herbicidal effect grade, K: Italian ryegrass” value was 4 (Herbicidal rate of 70% or more and less than 90%).

Consider `Cc1nn(C)c(=O)c(-c2c(-c3ccccc3OC(F)(F)F)sc3ccccc23)c1O` [1-030], for which the “herbicidal effect grade, K: Italian ryegrass” value is 4 (Herbicidal rate of 70% or more and less than 90%).

A further assay deals with false cleavers. As to the kind of experiment: Test Example 5: herbicidal effect by foliage application, plastic box (Table 20, symbol Q). The assay is classed as in vivo, false cleavers (Galium spurium). Particulars: foliage application, 320 g/ha, three weeks after application. In short, it runs like this:
as §2
In the case of `CCCOc1ccccc1-c1sc2ccccc2c1-c1c(O)c(C)nn(C)c1=O` [1-015], the “herbicidal effect grade, Q: false cleavers” value was 5 (Herbicidal rate of 90% or more (almost completely withered)).

`Cc1nn(C)c(=O)c(-c2c(-c3ccccc3OC(F)(F)F)sc3ccccc23)c1O` [1-030]: the “herbicidal effect grade, Q: false cleavers” value was 5 (Herbicidal rate of 90% or more (almost completely withered)).

A further assay relates to green foxtail. The assay can be described thus: Test Example 5: herbicidal effect by foliage application, plastic box (Table 20, symbol G). The assay is classed as in vivo, green foxtail (Setaria viridis). Particulars: foliage application, 320 g/ha, three weeks after application. In short, it runs like this: as §2
Turning to `CCCOc1ccccc1-c1sc2ccccc2c1-c1c(O)c(C)nn(C)c1=O` [1-015], the “herbicidal effect grade, G: green foxtail” value is 4 (Herbicidal rate of 70% or more and less than 90%).

Regarding `Cc1nn(C)c(=O)c(-c2c(-c3ccccc3OC(F)(F)F)sc3ccccc23)c1O` [1-030], the “herbicidal effect grade, G: green foxtail” value is on record as 5 (Herbicidal rate of 90% or more (almost completely withered)).

A further assay deals with Japanese bulrush. As to the kind of experiment: Test Example 2: herbicidal activity, application during weed generation under submerged conditions (Table 17, symbol B). The assay is classed as in vivo, Japanese bulrush (Schoenoplectus juncoides). Conditions: AAH 320 g/ha; application during weed generation, submerged conditions. In short, it runs like this:
(§3)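 Wagner pot, alluvial soil, 4 cm flood; mixed sowing of all species; greenhouse 25° C.–30° C. Emulsifiable formulation, water-diluted to predetermined dose, applied to paddy water at 1–2 leaf stage. Effect rated at 3 wk using the earlier test's scoring criteria.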
With `CCCOc1ccccc1-c1sc2ccccc2c1-c1c(O)c(C)nn(C)c1=O` [1-015], the “herbicidal effect rating, B: Japanese bulrush” value is 1 (Herbicidal rate of 5% or more and less than 20%).

As to `Cc1nn(C)c(=O)c(-c2c(-c3ccccc3OC(F)(F)F)sc3ccccc23)c1O` [1-030], the “herbicidal effect rating, B: Japanese bulrush” value is 3 (Herbicidal rate of 40% or more and less than 70%).

A further assay deals with barnyard grass. As to the kind of experiment: Test Example 4: herbicidal effect by soil treatment (Table 19, symbol H). Particulars: amount of applied herbicide 320 g/ha. The assay is classed as in vivo, barnyard grass (Echinochloa crus-galli). The method, boiled down: as §1
As to `CCCOc1ccccc1-c1sc2ccccc2c1-c1c(O)c(C)nn(C)c1=O` [1-015], the “herbicidal effect rating, H: barnyard grass” value was 4 (Herbicidal rate of 70% or more and less than 90%).

In the case of `Cc1nn(C)c(=O)c(-c2c(-c3ccccc3OC(F)(F)F)sc3ccccc23)c1O` [1-030], the “herbicidal effect rating, H: barnyard grass” value is 4 (Herbicidal rate of 70% or more and less than 90%).

A further assay deals with oval-leafed pondweed. The assay can be described thus: Test Example 2: herbicidal activity, application during weed generation under submerged conditions (Table 17, symbol C). The class given is in vivo, oval-leafed pondweed (Monochoria vaginalis). Conditions: AAH 320 g/ha; application during weed generation, submerged conditions. The method, boiled down:
as §3
For the compound `CCCOc1ccccc1-c1sc2ccccc2c1-c1c(O)c(C)nn(C)c1=O` [1-015], the “herbicidal effect rating, C: oval-leafed pondweed” value is 2 (Herbicidal rate of 20% or more and less than 40%).

For `Cc1nn(C)c(=O)c(-c2c(-c3ccccc3OC(F)(F)F)sc3ccccc23)c1O` [1-030], the “herbicidal effect rating, C: oval-leafed pondweed” value is 3 (Herbicidal rate of 40% or more and less than 70%).

Another assay relates to wild oat. The assay can be described thus: Test Example 4: herbicidal effect by soil treatment (Table 19, symbol I). Conditions: amount of applied herbicide 320 g/ha. The class given is in vivo, wild oat (Avena fatua). The method, boiled down:
as §1
In the case of `CCCOc1ccccc1-c1sc2ccccc2c1-c1c(O)c(C)nn(C)c1=O` [1-015], the “herbicidal effect rating, I: wild oat” value was 0 (Herbicidal rate of 5% or less (almost no effect)).

Take `Cc1nn(C)c(=O)c(-c2c(-c3ccccc3OC(F)(F)F)sc3ccccc23)c1O` [1-030]: the “herbicidal effect rating, I: wild oat” value was 1 (Herbicidal rate of 5% or more and less than 20%).

The subject of another assay is late watergrass. As to the kind of experiment: Test Example 2: herbicidal activity, application during weed generation under submerged conditions (Table 17, symbol A). The assay is classed as in vivo, late watergrass (Echinochloa oryzicola). Conditions: AAH 320 g/ha; application during weed generation, submerged conditions. The method, boiled down:
as §3
For `CCCOc1ccccc1-c1sc2ccccc2c1-c1c(O)c(C)nn(C)c1=O` [1-015], the “herbicidal effect rating, A: late watergrass” value is 3 (Herbicidal rate of 40% or more and less than 70%).

Turning to `Cc1nn(C)c(=O)c(-c2c(-c3ccccc3OC(F)(F)F)sc3ccccc23)c1O` [1-030], the “herbicidal effect rating, A: late watergrass” value is 1 (Herbicidal rate of 5% or more and less than 20%).

The test system of another assay is green foxtail. As to the kind of experiment: Test Example 4: herbicidal effect by soil treatment (Table 19, symbol G). The assay is classed as in vivo, green foxtail (Setaria viridis). Particulars: amount of applied herbicide 320 g/ha. The method, boiled down:
as §1
As for `CCCOc1ccccc1-c1sc2ccccc2c1-c1c(O)c(C)nn(C)c1=O` [1-015], the “herbicidal effect rating, G: green foxtail” value was 4 (Herbicidal rate of 70% or more and less than 90%).

As for `Cc1nn(C)c(=O)c(-c2c(-c3ccccc3OC(F)(F)F)sc3ccccc23)c1O` [1-030], the “herbicidal effect rating, G: green foxtail” value is 4 (Herbicidal rate of 70% or more and less than 90%).
